One may read the pKa as the pH at which an ionisable group is half protonated.

A short description of data set [1]: Total and unbound MPA and metabolite concentrations in plasma of kidney transplant recipients (HPLC-UV; ultrafiltration followed by LC-MS/MS). In kind it is in vivo, human. The following applies: 29 kidney transplant recipients. As for the experimental part: (§1) Patients were receiving 1000-2000 mg/day mycophenolate mofetil (Cellcept® Roche Laboratories). Unstimulated saliva samples were collected by passive drool into a plastic cup within a 5-min period of blood collection and stored at −80° C. until analysis. The patients remained fasted for the first 2 hours of sampling but then were allowed standard hospital meals.
(§2) Given the fact that the possibility of blood leakage in saliva is high at morning trough (FIG. 3), have collected 144 additional saliva samples obtained during another pharmacokinetic study. Therefore the data represented in the next section were obtained from 29 kidney transplant recipients throughout a 12-hour dosing interval.

Data set [2] can be described thus: MPA concentration in saliva of kidney transplant recipients by LC-MS/MS. In kind it is in vivo, human. Here is the method:
Indomethacin (INDO, Alfa Aesar) was used as the internal standard. All reagents and solvents were high performance liquid chromatography (HPLC) grade. […] Calibrators and Quality Control standards (QCs) were prepared using pooled unstimulated whole saliva collected from at least six healthy volunteers (IRB Approval#HU0203-120). […] All calibrators and QCs were aliquoted into 2 mL cryovials and maintained at −20° C. until use.
Extraction of MPA from saliva was carried out by protein precipitation. Calibrators, QC's or patient samples were thawed in a shaking water bath at 37° C. for 5 min. The samples were then sonicated for 10 seconds and 100 μL was pipetted into a microcentrifuge tube, followed by the subsequent additions 50 μL methanol containing INDO (500 μg/L) and […] acetonitrile. The tubes were vortex mixed for 90 seconds and centrifuged at 16,000 g for 5 min. The supernatants were carefully aspirated into glass culture tubes and dried at 50° C. in a centrifugal evaporator (Thermosavant Holbrook, N.Y.) after which they were reconstituted with 100 μL of 85:15% v/v of methanol and 0.05% formic acid in de-ionized water and a 20 μL aliquot was injected onto the column.
Analytical column was Zorbax Rx C8 (150 mm×4.6 mm, 5 μm) from Agilent Technologies (Palo Alto, Calif.) and mobile phase was a gradient mixture of methanol and deionized water containing 0.05% formic acid. […] For this, a combined mixture of the analytes (1 mg/L each) in mobile phase was infused continuously onto the mass spectrometer and the residues extracted from blank saliva were injected simultaneously via a three way T-valve. In accordance with further embodiments, the ionization technique may involve any of photoionization, electrospray ionization, atmospheric pressure chemical ionization, electron capture ionization or selective ion monitoring, and may be performed in positive mode or negative mode.
as §1, §2

Data set [3] can be described thus: Stability of MPA in saliva based quality control standards (freeze-thaw, short term, autosampler). The following applies: for Short term stability: bench top 5 hours at room temperature; for Short term stability / Freeze-thaw stability / Autosampler stability: n=3, mean ± SD, in % (unit assumed); for Freeze-thaw stability: three cycles of freezing at −20° C. and thawing at room temperature; for Autosampler stability: dried and reconstituted extracts 14-hours in autosampler. It counts as physicochemical. As for the experimental part: The lower limit of quantification (LLOQ) and limit of detection (LOD) were defined at a signal to noise ratio of 5:1 and 3:1, respectively. The recovery of the extraction procedure was done by comparing the peak areas obtained from an extracted saliva based standard of MIPA or INDO with the peak areas of these analytes in methanol. To evaluate intraday coefficient of variation (CV %) of the assay, QCs were analyzed six times on the same day. Interday CV % and accuracy was evaluated by measuring the QC concentrations over 10 days using a separate calibration curve for each set. […] For short term stability studies, samples were kept on the bench top for 5 hours at room temperature and for freeze-thaw stability studies, samples were subjected to three cycles of freezing at −20° C. and thawing unassisted at room temperature. To evaluate autosampler stability, dried and reconstituted extracts were kept in the autosampler for 14-hours and then analyzed.

A short description of data set [4]: Stock solution stability of methanolic stock solutions at room temperature. It counts as physicochemical. To be noted: 8 hours, against freshly prepared samples.
The conditions of data set [5]: cited from earlier work.
The mark [6] stands for this setting: 29 kidney transplant recipients, N=243.
[7] abbreviates: 29 kidney transplant recipients, N=246.

Values joined by “and” are separate entries in the source; they are usually repeats but may differ in a detail not shown here. Equal entries are not always repeated.

Turning to `COc1c(C)c2c(c(O)c1C/C=C(\C)CCC(=O)O[C@@H]1O[C@H](C(=O)O)[C@@H](O)[C@H](O)[C@H]1O)C(=O)OC2` [AcMPAG, Acyl-MPAG], in data set [1] (plasma, N=244), the “AcMPAG conc, Mean ± SD” value worked out at 1.8 ± 1.4 mg/L; the “AcMPAG conc, Median” value is on record as 1.5 mg/L; the “AcMPAG conc, Min-Max” value lay in the range of 0.4 to 8.5 mg/L. The “Presence of AcMPAG peak in patient saliva” value in data set [2] (saliva of kidney transplant recipients, LC-MS/MS chromatogram) is listed as “no AcMPAG peak was observed”.

Turning to `COc1c(C)c2c(c(O[C@@H]3O[C@H](C(=O)O)[C@@H](O)[C@H](O)[C@H]3O)c1C/C=C(\C)CCC(=O)O)C(=O)OC2` [MPAG, MPA-glucuronide], in data set [1] (plasma, N=244), the “MPAG conc, Mean ± SD” value amounted to 51.8 ± 31.6 mg/L; the “MPAG conc, Median” value is 43.8 mg/L; the “MPAG conc, Min-Max” value fell in the range of 10.6 to 180.5 mg/L.

In data set [3] (10 μg/L MPA in saliva), `COc1c(C)c2c(c(O)c1C/C=C(\C)CCC(=O)O)C(=O)OC2` [MPA, Mycophenolic acid] yielded a Short term stability of 106.0 ± 3.6 and a Freeze-thaw stability of 103.6 ± 7.1. For the same molecule, in data set [3] (10 μg/L MPA), the Autosampler stability came out at 95.0 ± 6.6. In data set [3] (600 μg/L MPA in saliva), this molecule registered a Short term stability of 98.7 ± 2.7 and a Freeze-thaw stability of 98.9 ± 1.1. The same molecule registered an Autosampler stability in data set [3] (600 μg/L MPA) of 98.2 ± 0.6. Besides, the “Stability in saliva based standards (in words)” value in data set [3] (under the experimental condition described) is “stable”. Moreover, the “Loss of analyte at room temperature from methanolic stock solution” value in data set [4] is 0.6%. In data set [1] (plasma ultrafiltrate, N=243), the “Unbound MPA conc, Mean ± SD” value was found to be 27.9 ± 36.6 µg/L; the “Unbound MPA conc, Median” value stood at 14.5 µg/L; the “Unbound MPA conc, Min-Max” value lay within 1.8 to 267.0 µg/L. In data set [1] (plasma, N=244), the “Total MPA conc, Median” value is on record as 2.3 mg/L and the “Total MPA conc, Min-Max” value was 0.3 to 38.5 mg/L. Also, the “Total MPA conc, Mean ± SD” value in data set [1] (plasma, N=244, 12-hour dosing interval) worked out at 3.7 ± 4.7 mg/L. Further, the pKa in data set [5] is on record as 4.5. Moreover, the “Salivary concentration of MPA before administration of Cellcept morning dose (morning trough)” value in data set [2] (11 kidney transplant recipients, morning trough) was 79.8 ± 63.7 µg/L. Besides, the “Saliva concentration of MPA, range” value in data set [2] (11 kidney transplant recipients, n=100 samples, 12-hour dosing interval) is 2.6 to 2204 µg/L and 2.6 to 220.4 µg/L. For the same molecule, the “Saliva concentration of MPA, Mean±SD” value in data set [2] (11 kidney transplant recipients, n=100 samples, 12-hour dosing interval, 1000-2000 mg/day mycophenolate mofetil) worked out at 31.4 ± 32.3 µg/L. In addition, in data set [2] (29 kidney transplant recipients, 244 saliva samples), the “Average deviation between saliva and unbound plasma concentrations” value was 0.49 ng/mL. In data set [2] (setting [6]), the “Deviation between saliva and unbound conc, Mean ± SD (average deviation)” value is 0.49 µg/L and 0.49 ± 44.25 µg/L; the “Deviation between saliva and unbound conc, Median” value is 1.89 µg/L; the “Deviation between saliva and unbound conc, Min-Max” value is -208.10 to 264.54 µg/L. Also, in data set [2] (setting [7]), the “Saliva MPA conc, Mean ± SD” value was 28.3 ± 32.3 µg/L; the “Saliva MPA conc, Median” value amounted to 18.1 µg/L; the “Saliva MPA conc, Min-Max” value fell in the range of 1.4 to 283.9 µg/L. Besides, the “Saliva MPA compared with unbound plasma concentration” value in data set [2] (two hours post dose, absorption phase) is on record as “considerably lower”.

As to `COc1ccc2c(c1)c(CC(=O)O)c(C)n2C(=O)c1ccc(Cl)cc1` [INDO, Indomethacin], in data set [4], the “Loss of analyte at room temperature from methanolic stock solution” value was 10%.
